± gives the expanded uncertainty stated by the source.
Details: Liquid, Vibrating tube method

Cc1ccsc1 [3-methylthiophene]
Details	mass density [kg/m3]
283.15 K, 100 kPa	1031.82 ± 0.51
283.15 K, 2000 kPa	1033.26 ± 0.51
283.15 K, 5000 kPa	1035.47 ± 0.51
283.15 K, 7000 kPa	1036.93 ± 0.51
283.15 K, 10000 kPa	1039.07 ± 0.51
283.15 K, 15000 kPa	1042.56 ± 0.51
283.15 K, 20000 kPa	1045.93 ± 0.52
283.15 K, 25000 kPa	1049.2 ± 0.52
283.15 K, 30000 kPa	1052.37 ± 0.52
283.15 K, 35000 kPa	1055.46 ± 0.53
283.15 K, 40000 kPa	1058.46 ± 0.53
283.15 K, 45000 kPa	1061.37 ± 0.54
283.15 K, 50000 kPa	1064.22 ± 0.54
283.15 K, 55000 kPa	1066.97 ± 0.55
283.15 K, 60000 kPa	1069.67 ± 0.56
283.15 K, 65000 kPa	1072.32 ± 0.57
288.15 K, 100 kPa	1026.57 ± 0.51
288.15 K, 2000 kPa	1028.05 ± 0.51
288.15 K, 5000 kPa	1030.34 ± 0.51
288.15 K, 7000 kPa	1031.84 ± 0.51
288.15 K, 10000 kPa	1034.03 ± 0.51
288.15 K, 15000 kPa	1037.61 ± 0.51
288.15 K, 20000 kPa	1041.07 ± 0.51
288.15 K, 25000 kPa	1044.41 ± 0.52
288.15 K, 30000 kPa	1047.65 ± 0.52
288.15 K, 35000 kPa	1050.8 ± 0.52
288.15 K, 40000 kPa	1053.86 ± 0.53
288.15 K, 45000 kPa	1056.84 ± 0.53
288.15 K, 50000 kPa	1059.74 ± 0.54
288.15 K, 55000 kPa	1062.56 ± 0.55
288.15 K, 60000 kPa	1065.32 ± 0.56
288.15 K, 65000 kPa	1068.01 ± 0.56
293.15 K, 100 kPa	1021.31 ± 0.51
293.15 K, 2000 kPa	1022.81 ± 0.51
293.15 K, 5000 kPa	1025.16 ± 0.51
293.15 K, 7000 kPa	1026.7 ± 0.51
293.15 K, 10000 kPa	1028.95 ± 0.51
293.15 K, 15000 kPa	1032.61 ± 0.51
293.15 K, 20000 kPa	1036.16 ± 0.51
293.15 K, 25000 kPa	1039.6 ± 0.52
293.15 K, 30000 kPa	1042.92 ± 0.52
293.15 K, 35000 kPa	1046.15 ± 0.52
293.15 K, 40000 kPa	1049.27 ± 0.53
293.15 K, 45000 kPa	1052.31 ± 0.53
293.15 K, 50000 kPa	1055.28 ± 0.54
293.15 K, 55000 kPa	1058.15 ± 0.54
293.15 K, 60000 kPa	1060.96 ± 0.55
293.15 K, 65000 kPa	1063.7 ± 0.56
298.15 K, 100 kPa	1016 ± 0.51
298.15 K, 2000 kPa	1017.57 ± 0.51
298.15 K, 5000 kPa	1019.98 ± 0.51
298.15 K, 7000 kPa	1021.56 ± 0.51
298.15 K, 10000 kPa	1023.89 ± 0.51
298.15 K, 15000 kPa	1027.64 ± 0.51
298.15 K, 20000 kPa	1031.29 ± 0.51
298.15 K, 25000 kPa	1034.81 ± 0.51
298.15 K, 30000 kPa	1038.2 ± 0.52
298.15 K, 35000 kPa	1041.52 ± 0.52
298.15 K, 40000 kPa	1044.71 ± 0.52
298.15 K, 45000 kPa	1047.82 ± 0.53
298.15 K, 50000 kPa	1050.84 ± 0.53
298.15 K, 55000 kPa	1053.78 ± 0.54
298.15 K, 60000 kPa	1056.65 ± 0.55
298.15 K, 65000 kPa	1059.43 ± 0.55
303.15 K, 100 kPa	1010.72 ± 0.51
303.15 K, 2000 kPa	1012.32 ± 0.51
303.15 K, 5000 kPa	1014.81 ± 0.51
303.15 K, 7000 kPa	1016.43 ± 0.51
303.15 K, 10000 kPa	1018.83 ± 0.51
303.15 K, 15000 kPa	1022.7 ± 0.51
303.15 K, 20000 kPa	1026.42 ± 0.51
303.15 K, 25000 kPa	1030.01 ± 0.51
303.15 K, 30000 kPa	1033.5 ± 0.52
303.15 K, 35000 kPa	1036.87 ± 0.52
303.15 K, 40000 kPa	1040.16 ± 0.52
303.15 K, 45000 kPa	1043.34 ± 0.53
303.15 K, 50000 kPa	1046.42 ± 0.53
303.15 K, 55000 kPa	1049.41 ± 0.54
303.15 K, 60000 kPa	1052.33 ± 0.54
303.15 K, 65000 kPa	1055.16 ± 0.55
308.15 K, 100 kPa	1005.4 ± 0.51
308.15 K, 2000 kPa	1007.04 ± 0.51
308.15 K, 5000 kPa	1009.61 ± 0.51
308.15 K, 7000 kPa	1011.27 ± 0.51
308.15 K, 10000 kPa	1013.72 ± 0.51
308.15 K, 15000 kPa	1017.69 ± 0.51
308.15 K, 20000 kPa	1021.53 ± 0.51
308.15 K, 25000 kPa	1025.22 ± 0.51
308.15 K, 30000 kPa	1028.73 ± 0.51
308.15 K, 35000 kPa	1032.24 ± 0.52
308.15 K, 40000 kPa	1035.59 ± 0.52
308.15 K, 45000 kPa	1038.84 ± 0.52
308.15 K, 50000 kPa	1041.98 ± 0.53
308.15 K, 55000 kPa	1045.05 ± 0.53
308.15 K, 60000 kPa	1048.03 ± 0.54
308.15 K, 65000 kPa	1050.91 ± 0.54
313.15 K, 100 kPa	1000.05 ± 0.51
313.15 K, 2000 kPa	1001.76 ± 0.51
313.15 K, 5000 kPa	1004.39 ± 0.51
313.15 K, 7000 kPa	1006.11 ± 0.51
313.15 K, 10000 kPa	1008.64 ± 0.51
313.15 K, 15000 kPa	1012.71 ± 0.51
313.15 K, 20000 kPa	1016.63 ± 0.51
313.15 K, 25000 kPa	1020.43 ± 0.51
313.15 K, 30000 kPa	1024.08 ± 0.51
313.15 K, 35000 kPa	1027.61 ± 0.51
313.15 K, 40000 kPa	1031.05 ± 0.52
313.15 K, 45000 kPa	1034.35 ± 0.52
313.15 K, 50000 kPa	1037.58 ± 0.52
313.15 K, 55000 kPa	1040.71 ± 0.53
313.15 K, 60000 kPa	1043.73 ± 0.53
313.15 K, 65000 kPa	1046.69 ± 0.54
318.15 K, 100 kPa	994.7 ± 0.51
318.15 K, 2000 kPa	996.44 ± 0.51
318.15 K, 5000 kPa	999.15 ± 0.51
318.15 K, 7000 kPa	1000.93 ± 0.51
318.15 K, 10000 kPa	1003.52 ± 0.51
318.15 K, 15000 kPa	1007.7 ± 0.51
318.15 K, 20000 kPa	1011.74 ± 0.51
318.15 K, 25000 kPa	1015.6 ± 0.51
318.15 K, 30000 kPa	1019.35 ± 0.51
318.15 K, 35000 kPa	1022.99 ± 0.51
318.15 K, 40000 kPa	1026.48 ± 0.52
318.15 K, 45000 kPa	1029.86 ± 0.52
318.15 K, 50000 kPa	1033.15 ± 0.52
318.15 K, 55000 kPa	1036.33 ± 0.53
318.15 K, 60000 kPa	1039.44 ± 0.53
318.15 K, 65000 kPa	1042.45 ± 0.53
323.15 K, 100 kPa	989.3 ± 0.51
323.15 K, 2000 kPa	991.1 ± 0.51
323.15 K, 5000 kPa	993.9 ± 0.51
323.15 K, 7000 kPa	995.72 ± 0.51
323.15 K, 10000 kPa	998.41 ± 0.51
323.15 K, 15000 kPa	1002.71 ± 0.51
323.15 K, 20000 kPa	1006.85 ± 0.51
323.15 K, 25000 kPa	1010.83 ± 0.51
323.15 K, 30000 kPa	1014.66 ± 0.51
323.15 K, 35000 kPa	1018.35 ± 0.51
323.15 K, 40000 kPa	1021.93 ± 0.51
323.15 K, 45000 kPa	1025.4 ± 0.52
323.15 K, 50000 kPa	1028.76 ± 0.52
323.15 K, 55000 kPa	1032.03 ± 0.52
323.15 K, 60000 kPa	1035.18 ± 0.53
323.15 K, 65000 kPa	1038.24 ± 0.53
328.15 K, 100 kPa	983.88 ± 0.51
328.15 K, 2000 kPa	985.74 ± 0.51
328.15 K, 5000 kPa	988.63 ± 0.51
328.15 K, 7000 kPa	990.51 ± 0.51
328.15 K, 10000 kPa	993.26 ± 0.51
328.15 K, 15000 kPa	997.7 ± 0.51
328.15 K, 20000 kPa	1001.93 ± 0.51
328.15 K, 25000 kPa	1006 ± 0.51
328.15 K, 30000 kPa	1009.94 ± 0.51
328.15 K, 35000 kPa	1013.73 ± 0.51
328.15 K, 40000 kPa	1017.38 ± 0.51
328.15 K, 45000 kPa	1020.94 ± 0.51
328.15 K, 50000 kPa	1024.36 ± 0.52
328.15 K, 55000 kPa	1027.68 ± 0.52
328.15 K, 60000 kPa	1030.89 ± 0.52
328.15 K, 65000 kPa	1034.03 ± 0.53
333.15 K, 100 kPa	978.47 ± 0.51
333.15 K, 2000 kPa	980.39 ± 0.51
333.15 K, 5000 kPa	983.35 ± 0.51
333.15 K, 7000 kPa	985.3 ± 0.51
333.15 K, 10000 kPa	988.13 ± 0.51
333.15 K, 15000 kPa	992.67 ± 0.51
333.15 K, 20000 kPa	997.03 ± 0.51
333.15 K, 25000 kPa	1001.22 ± 0.51
333.15 K, 30000 kPa	1005.22 ± 0.51
333.15 K, 35000 kPa	1009.12 ± 0.51
333.15 K, 40000 kPa	1012.87 ± 0.51
333.15 K, 45000 kPa	1016.49 ± 0.51
333.15 K, 50000 kPa	1020 ± 0.51
333.15 K, 55000 kPa	1023.38 ± 0.52
333.15 K, 60000 kPa	1026.67 ± 0.52
333.15 K, 65000 kPa	1029.88 ± 0.52
338.15 K, 100 kPa	972.98 ± 0.51
338.15 K, 2000 kPa	974.96 ± 0.51
338.15 K, 5000 kPa	978.01 ± 0.51
338.15 K, 7000 kPa	980.02 ± 0.51
338.15 K, 10000 kPa	982.95 ± 0.51
338.15 K, 15000 kPa	987.63 ± 0.51
338.15 K, 20000 kPa	992.12 ± 0.51
338.15 K, 25000 kPa	996.41 ± 0.51
338.15 K, 30000 kPa	1000.53 ± 0.51
338.15 K, 35000 kPa	1004.49 ± 0.51
338.15 K, 40000 kPa	1008.33 ± 0.51
338.15 K, 45000 kPa	1012.04 ± 0.51
338.15 K, 50000 kPa	1015.62 ± 0.51
338.15 K, 55000 kPa	1019.08 ± 0.51
338.15 K, 60000 kPa	1022.44 ± 0.52
338.15 K, 65000 kPa	1025.7 ± 0.52

— the NIST ThermoML archive (doi:10.1016/j.jct.2016.08.005)
